According to US4988497A, “Process for the optical determination of lipase” (Boehringer Mannheim GmbH, priority 1985, dated 1991):

Columns and labels:
[1] = blank change (water instead of sample); format: physicochemical; details: 100 μl water instead of sample; extinction change at 578 nm
Experimental: (§1) 1.2 g. Sodium desoxycholate and 0.15 mg. colipase (from the pig) are dissolved in 60 ml. distilled water, with stirring. A solution of 70 mg. of the lipase substrate 1,2-0-dioctyl-rac-glycero-3-azelaic acid resorufin ester (Example 4) in 1.7 ml. n-propanol are injected herein under pressure in the thinnest possible stream, with vigorous stirring. A solution which, in 200 ml. distilled water, contains 1.5 g. urea, 1 g. sodium desoxycholate, 200 mg. sodium chloride, 800 mg. TRIS and 107 mg. TRIS.HCl, is well mixed with the above-produced emulsion.
(§2) 2.5 ml. of the so produced solution are mixed with 100 μ. of sample (serum). The reaction is monitored photometrically at 578 nm Hg.
The blank change was determined with a reagent according to Example 1 and various lipase substrates. Instead of the sample, 100 μ1. water were added and the extinction change monitored photometrically at 578 nm (ΔmE/min.).

[2] = system: carboxyl esterase (EC 3.1.1.1); test: esterase sensitivity; format: biochemical; details: for esterase sensitivity (activity 20,000 U/l): 100 μl carboxyl esterase about 20,000 U/l, 578 nm; for Esterase sensitivity: emulsion prepared as in Example 22
Experimental: as §1, §2
For the determination of the esterase sensitivity, instead of the sample there were added 100 μl. carboxyl esterase (EC 3.1.1.1; about 20,000 U/1. Boehringer Mannheim GmbH, Order No. 10 46 98) and the extinction change monitored as described above.

lipase (EC 3.1.1.3) [3] = test: lipase sensitivity; format: biochemical; details: for lipase sensitivity (activity 100 U/l): 100 μl lipase about 100 U/l, 578 nm
Experimental: as §1, §2
For the determination of the lipase sensitivity, instead of the sample there were added 100 μl. lipase (EC 3.1.1.3; about 100 U/1., Boehringer Mannheim GmbH, Order No. 41 45 90) and the extinction change monitored as described above.

[4] = blank change (water instead of sample); format: physicochemical
lipase (EC 3.1.1.3) [5] = test: lipase sensitivity; format: biochemical
[6] = emulsion prepared as in Example 22
[7] = taurodesoxycholate/TRIS reagent pH 7.5, 578 nm
[8] = fluorometric, 25° C., excitation 364 nm, emission 448 nm

| Compound | blank [1] | esterase sensitivity (activity 20,000 U/l) [2] | lipase sensitivity (activity 100 U/l) (lipase (EC 3.1.1.3) [3]) | further results |
| --- | --- | --- | --- | --- |
| CCCCCCOCC(COC(=O)CCCC(=O)Oc1ccc2nc3ccc(=O)cc-3oc2c1)OCCCCCC (racemic) [Example 1, 1,2-O-Dihexyl-rac-glycero-3-glutaric acid resorufin ester] | 13.2 ΔmE/min | > 1000 ΔmE/min |  |  |
| CCCCCCCCOCC(COC(=O)CCCCCCCC(=O)Oc1ccc2nc3ccc(=O)cc-3oc2c1)OCCCCCCCC (racemic) [Example 4, 1,2-O-dioctyl-rac-glycero-3-azelaic acid resorufin ester] | 0.4-0.8 ΔmE/min | 33.6 ΔmE/min | 18.04 ΔmE/min |  |
| CCCCCCCCCCCOCC(COC(=O)CCCC(=O)Oc1ccc2nc3ccc(=O)cc-3oc2c1)OCCCCCCCCCCC (racemic) [Example 6, 1,2-O-Diundecyl-rac-glycero-3-glutaric acid resorufin ester] | 2.0-2.8 ΔmE/min | 23.6 ΔmE/min | 6.96 ΔmE/min |  |
| CCCCCCCCCCCCOCC(COC(=O)CCCC(=O)Oc1ccc2nc3ccc(=O)cc-3oc2c1)OCCCCCCCCCCCC (racemic) [Example 7, 1,2-O-Dilauryl-rac-glycero-3-glutaric acid resorufin ester] | 2.4-3.0 ΔmE/min | 34.8 ΔmE/min | 10.9 ΔmE/min |  |
| CCCCCCCCCCCCOCC(COC(=O)CCCCCC(=O)Oc1ccc2nc3ccc(=O)cc-3oc2c1)OCCCCCCCCCCCC (racemic) [Example 8, 1,2-O-Dilauryl-rac-glycero-3-pimelic acid resorufin ester] | 2.1-2.4 ΔmE/min | 27.8 ΔmE/min | 4.68 ΔmE/min |  |
| CCCCCCCCCCOCC(COC(=O)CCCCCC(=O)Oc1ccc2nc3ccc(=O)cc-3oc2c1)OCCCCCCCCCC (racemic) [Example 20, 1,2-0-Didecyl-rac-glycero-3-pimelic acid resorufin ester] | 1.3-2.0 ΔmE/min | 48.7 ΔmE/min | 9.8 ΔmE/min |  |
| CCCCCCCCCCCCOCC(COC(=O)CCCCCCCCCCCCC(=O)Oc1ccc2nc3ccc(=O)cc-3oc2c1C)OCCCCCCCCCCCC (racemic) [Example 28, 1,2-0-Dilauryl-rac-glycero-3-tetradecandiacid (6-methylresorufin) ester] |  |  |  | Esterase sensitivity [2]: 0.7 mE/min; Lipase sensitivity (lipase (EC 3.1.1.3) [3]; [6]): 23.6 mE/min per 100 U/1; blank [4, 6]: 0.2 mE/min |
| CCCCCCCCCCCCOCC(COC(=O)CCCC(=O)Oc1ccc2nc3ccc(=O)cc-3oc2c1C)OCCCCCCCCCCCC (racemic) [Example 29, 1,2-0-Dilauryl-rac-qlycero-3-glutaric-acid (6-methyl-resorufin)-ester] |  |  |  | blank [4, 7]: 0.4 mE/min; Lipase sensitivity (lipase (EC 3.1.1.3) [5]; [7]): 28 mE/min per 100 U/l |
| CCCCCCCCCCCCOCC(COC(=O)CCCC(=O)Oc1ccc2c(C)cc(=O)oc2c1)OCCCCCCCCCCCC (racemic) [Example 31, 1,2-0-Dilauryl-rac-glycero-3-glutaric acid-(4-methylumbelliferyl)-ester] |  |  |  | blank [4, 8]: 0.4 mE/min; Lipase sensitivity (lipase (EC 3.1.1.3) [5]; [8]): 28 mE/min per 100 U/1 |
| CCCCCCCCCCCCOCC(COC(=O)CCCC(=O)Sc1ccc([N+](=O)[O-])cc1)OCCCCCCCCCCCC (racemic) [Example 32, 1,2-0-Dilauryl-rac-glycero-3-qlutaric acid-(p-nitrothiophenyl)-ester] |  |  |  | blank ([4]; CHES reagent pH 8.3, 405 nm): 0.3 mE/min; Lipase sensitivity (lipase (EC 3.1.1.3) [5]; CHES reagent pH 8.3, 405 nm): 12.2 mE/min per 100 U/1 |
| CCCCCCCCCCCCCCCCC(COCC(COC(=O)CCCC(=O)Oc1ccc2nc3ccc(=O)cc-3oc2c1C)OC)OC (racemic) [Example 33, 1-0-(2-Methoxy-octadecyl)-2-0-methyl-rac-glycero-3-glutaric acid-(6-methylresorufin) ester] |  |  |  | Esterase sensitivity [2]: 25.3 mE/min; Lipase sensitivity (lipase (EC 3.1.1.3) [3]; [6]): 19.0 mE/min per 100 U/1; blank [4, 6]: 8.4 mE/min |
| CCCCCCCCCCCCOCC(COC(=O)CCC(=O)Oc1ccc2nc3ccc(=O)cc-3oc2c1)OCCCCCCCCCCCC (racemic) [Example 34, 1,2-0-Dilauryl-rac-glycero-3-succinic acid resorufin ester] |  |  |  | Lipase sensitivity (lipase (EC 3.1.1.3) [3]; [6]): 8.7 mE/min per 100 U/1 |
| CCCCCCCCCCCCOCC(CSC(=O)CCCC(=O)Oc1ccc2nc3ccc(=O)cc-3oc2c1C)OCCCCCCCCCCCC (racemic) [Example 36, 1,2-0-Dilauryl-rac-3-thioglycero-3-S-glutaric acid (6-methylresorufin) ester] |  |  |  | Esterase sensitivity [2]: 1.3 mE/min; Lipase sensitivity (lipase (EC 3.1.1.3) [3]; [6]): 4.1 mE/min per 100 U/1 |
| CCCCCCCCCCCCSCC(COC(=O)CCCC(=O)Oc1ccc2nc3ccc(=O)cc-3oc2c1C)SCCCCCCCCCCCC (racemic) [Example 37, 1,2-S-Dilauryl-rac-1,2-dithioglycero-3-glutaric acid (6-methylresorufin) ester] |  |  |  | Esterase sensitivity [2]: 3.4 mE/min; Lipase sensivity (lipase (EC 3.1.1.3) [3]; emulsion prepared as in Example 22, no lipase activity printed): 24 mE/min; blank [4, 6]: 3 mE/min |
| CCCCCCCCCCCCCCCCC(COC(=O)CCCC(=O)Oc1ccc2nc3ccc(=O)cc-3oc2c1C)OCCCCCCCCCCCC (stereo not shown) [Example 35] |  |  |  | Esterase sensitivity [2]: 1.0 mE/min; Lipase sensitivity (lipase (EC 3.1.1.3) [3]; [6]): 25.5 mE/min per 100 U/1 |

Continued, in another order:

| blank [1] | esterase sensitivity (activity 20,000 U/l) [2] | lipase sensitivity (activity 100 U/l) (lipase (EC 3.1.1.3) [3]) | Compound | further results |
| --- | --- | --- | --- | --- |
| 7.0 ΔmE/min | 144.0 ΔmE/min | ~ 100 ΔmE/min | CCCCCCCCOCC(COC(=O)CCCC(=O)Oc1ccc2nc3ccc(=O)cc-3oc2c1)OCCCCCCCC (racemic) [Example 2, 1,2-O-Dioctyl-rac-glycero-3-glutaric acid resorufin ester] |  |
| 3.9-4.1 ΔmE/min | 112.5 ΔmE/min | 12.28 ΔmE/min | CCCCCCCCOCC(COC(=O)CCCCCC(=O)Oc1ccc2nc3ccc(=O)cc-3oc2c1)OCCCCCCCC (racemic) [Example 3, 1,2-O-dioctyl-rac-glycero-3-pimelic acid resorufin ester] |  |
| 2.4-3.0 ΔmE/min | 30.2 ΔmE/min | 22.18 ΔmE/min | CCCCCCCCCCOCC(COC(=O)CCCC(=O)Oc1ccc2nc3ccc(=O)cc-3oc2c1)OCCCCCCCCCC (racemic) [Example 5, 1,2-O-Didecyl-rac-glycero-3-glutaric acid resorufin ester] |  |
| 9.8-11.9 ΔmE/min | 9.5 ΔmE/min | 13.2 ΔmE/min | CCCCCCCCCCCCOCC(COC(=O)CCCCCCCC(=O)Oc1ccc2nc3ccc(=O)cc-3oc2c1)OCCCCCCCCCCCC (racemic) [Example 21, 1,2-0-Dilauryl-rac-glycero-3-azelaic acid resorufin ester] |  |
| 0.1 ΔmE/min | 1.8 ΔmE/min | 0.97 ΔmE/min | CCCCCCCCCCCCCCCCOC[C@H](COC(=O)CCCC(=O)Oc1ccc2nc3ccc(=O)cc-3oc2c1)OCCCCCCCCCCCCCCCC [Example 11, 1,2-O-Dihexadecyl-sn-glycero-3-glutaric acid resorufin ester] |  |
